Legend:
[1] = system: JAK2, TYK2/p-STAT4 (Tyr693) activated by IL-12 in NK-92 cell line; assay: IL-12-JAK2, TYK2/p-STAT4 (Tyr693) inhibition cellular assay; format: cell-based; details: for IC50: NK92, 0.5 h, NK-92 cells, IL-12 40 ng/ml, 30 min, read-out: Cellular assay pSTAT4/IL-12 IC50; for Cellular assay Selectivity fold (TYK2/JAK1): pSTAT4/IL-12 vs pSTAT3/IL-6 cellular IC50
In short: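 NK-92 cells were starved overnight without IL-2 and seeded at 5×10^4 per well in 1640 medium with 0.1% BSA. Lysate p-STAT4 (Tyr693) was measured by AlphaLISA SureFire, and IC50 was fitted with a 4-parameter logistic model.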

[2] = target: T1, TYK2-JH2 (aa 575-869, in-house) protein (Homo sapiens, UniProt P29597); assay: TYK2-JH2 biochemical assay (HTRF, blocking of TYK2-JH2 protein with its probe); format: binding; details: for IC50: HTRF, 0.2 nM recombinant TYK2-JH2, Probe 1; for Biochemical assay Selectivity fold (TYK2/JAK1): TYK2-JH2 vs JAK1-JH2 biochemical IC50
T1 construct: TYK2-JH2 (aa 575-869, in-house) protein; made in house
In short: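 Recombinant TYK2-JH2 (0.2 nM) pre-incubated with compounds (10 doses, 5-fold dilutions) 0.5 h at RT in HEPES pH 7.5 buffer with MgCl2, BSA, DTT, Brij-35; biotinylated probe (10 nM working solution, KD=10 nM) plus anti-6His Tb cryptate/streptavidin-XL665 added, 1 h RT. HTRF ratio read; IC50 from four-parameter logistic fit.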

[3] = target: T2, JAK1-JH2 protein (aa 561-860, in-house) (Homo sapiens, UniProt P23458); assay: JAK1-JH2 biochemical assay (HTRF, blocking of JAK1-JH2 protein with its probe); format: binding; details: 1.17 nM recombinant JAK1-JH2, Probe 2
T2 construct: JAK1-JH2 protein (aa 561-860, in-house); made in house
In short: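 HTRF probe-displacement assay using recombinant human JAK1 pseudokinase domain (aa 561-860, 1.17 nM in pre-incubation step), pre-incubated 0.5 h at room temperature with 10-dose 5-fold compound series. Buffer: 20 mM HEPES pH 7.5, 10 mM MgCl2, 0.005% BSA, 2 mM DTT, 0.015% Brij-35. IC50 by four-parameter logistic fit of 615/665 nm ratio.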

[4] = system: JAK1/p-STAT3(Tyr705) activated by IL-6 in TF-1 cell line; assay: IL-6-JAK1/p-STAT3(Tyr705) inhibition cellular assay; format: cell-based; details: Homo sapiens, 0.5 h; TF-1 cells, IL-6 50 ng/ml, 30 min; read-out: Cellular assay pSTAT3/IL-6 IC50

T1 sequence (P29597 575-869): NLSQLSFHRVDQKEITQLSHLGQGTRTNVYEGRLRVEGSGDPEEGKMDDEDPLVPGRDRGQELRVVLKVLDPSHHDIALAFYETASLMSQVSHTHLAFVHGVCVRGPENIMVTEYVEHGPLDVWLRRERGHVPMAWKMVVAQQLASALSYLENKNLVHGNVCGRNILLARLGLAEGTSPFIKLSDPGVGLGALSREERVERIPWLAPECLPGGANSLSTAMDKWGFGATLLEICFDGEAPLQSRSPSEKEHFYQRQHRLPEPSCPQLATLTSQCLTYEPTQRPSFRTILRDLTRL
T2 sequence (P23458 561-860): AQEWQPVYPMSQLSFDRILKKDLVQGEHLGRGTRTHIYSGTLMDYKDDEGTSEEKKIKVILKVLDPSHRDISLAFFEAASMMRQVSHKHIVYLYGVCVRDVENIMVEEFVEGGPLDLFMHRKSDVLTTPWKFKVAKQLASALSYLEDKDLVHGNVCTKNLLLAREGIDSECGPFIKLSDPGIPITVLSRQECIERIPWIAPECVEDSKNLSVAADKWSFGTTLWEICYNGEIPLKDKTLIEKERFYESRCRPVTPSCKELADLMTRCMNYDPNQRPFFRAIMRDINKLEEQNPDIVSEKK

Structure (SMILES) | IC50 [1] [nM] | Cellular assay Selectivity fold (TYK2/JAK1) [1] [fold] | IC50 [2] [nM] | Biochemical assay Selectivity fold (TYK2/JAK1) [2] [fold] | IC50 [3] [nM] | IC50 [4] [nM]
CNC(=O)c1nnc(NC(=O)C2CC2)cc1Nc1nc2ccc(N3CC(COC)C3)cn2n1 [Example E15, 6-(cyclopropanecar-boxamido)-4-((6-(3-(methoxymethyl)azetidin-1-yl)-[1,2,4]triazolo[1,5-a]pyridin-2-yl)amino)-N-methylpyridazine-3-carboxamide] | 8.14 | >1228 | 0.045 | 29 | 1.3 | > 10000
CNC(=O)c1nnc(NC(=O)C2CC2)cc1Nc1nc2ccc(N3CC(OCCOC)C3)cn2n1 [Example E16, 6-(cyclopropanecar-boxamido)-4-((6-(3-(2-methoxyethoxy)azetidin-1-yl)-[1,2,4]triazolo[1,5-a]pyridin-2-yl)amino)-N-methylpyridazine-3-carboxamide] | 15.6 | 186 | 0.046 | 20 | 0.93 | 2910
CNC(=O)c1nnc(NC(=O)C2CC2)cc1Nc1nc2ccc(N3CC(F)(COC)C3)cn2n1 [Example E17, 6-(cyclopropanecar-boxamido)-4-((6-(3-fluoro-3-(methoxy-methyl)azetidin-1-yl)-[1,2,4]triazolo[1,5-a]pyridin-2-yl)amino)-N-methylpyridazine-3-carboxamide] | 8.28 | 317 | 0.071 | 35 | 2.5 | 2630
CNC(=O)c1nnc(NC(=O)C2CC2)cc1Nc1nc2ccc(N3CC(S(C)(=O)=O)C3)cn2n1 [Example E18, 6-(cyclopropanecar-boxamido)-N-methyl-4-((6-(3-(methyl-sulfonyl)azetidin-1-yl)-[1,2,4]triazolo [1,5-a]pyridin-2-yl)amino)pyridazine-3-carboxamide] | 645 | >15.5 | 0.12 | 13 | 1.5 | > 10000
CNC(=O)c1nnc(NC(=O)C2CC2)cc1Nc1nc2ccc(N3CC(Oc4ccc(F)cc4F)C3)cn2n1 [Example E19, 6-(cyclopropanecar-boxamido)-4-((6-(3-(2,4-difluorophenoxy)azetidin-1-yl)-[1,2,4]triazolo[1,5-a]pyridin-2-yl)amino)-N-methylpyridazine-3-carboxamide] | 105 | >95 | 0.14 | 60 | 8.4 | > 10000
CNC(=O)c1nnc(NC(=O)C2CC2)cc1Nc1nc2ccc(N3CCC3COC)cn2n1 (stereo not drawn) [Example E20, 6-(cyclopropanecar-boxamido)-4-((6-(2-(methoxymethyl)azetidin-1-yl)-[1,2,4]triazolo[1,5-a]pyridin-2-yl)amino)-N-methylpyridazine-3-carboxamide] | 16.4 | >609 | 0.089 | 36 | 3.2 | > 10000
CNC(=O)c1nnc(NC(=O)C2CC2)cc1Nc1nc2ccc(N3CCC(N4CC(N(C)C)C4)CC3)cn2n1 [Example E21, 6-(cyclopropanecar-boxamido)-4-((6-(4-(3-(dimethylamino)azetidin-1-yl)piperidin-1-yl)-[1,2,4]triazolo [1,5-a]pyridin-2-yl)amino)-N-methylpyridazine-3-carboxamide] | 42 | >238 | 0.077 | 36 | 2.78 | > 10000
CCN(CC)C1CN(c2ccc3nc(Nc4cc(NC(=O)C5CC5)nnc4C(=O)NC)nn3c2)C1 [Example E22, 6-(cyclopropanecar-boxamido)-4-((6-(3-(diethylamino)azetidin-1-yl)-[1,2,4]triazolo [1,5-a]pyridin-2-yl)amino)-N-methylpyridazine-3-carboxamide] | 37.2 | 138 | 0.093 | 11 | 1.03 | 5120
CNC(=O)c1nnc(NC(=O)C2CC2)cc1Nc1nc2ccc(N3CC(N(C)S(C)(=O)=O)C3)cn2n1 [Example F1, 6-(cyclopropanecarboxamido)-N-methyl-4-((6-(3-(N-methylmethylsulfonamido)azetidin-1-yl)-[1,2,4]triazolo[1,5-a]pyridin-2-yl)amino)pyridazine-3-carboxamide] | 95 | >105 | 0.12 | 22 | 2.6 | > 10000
CNC(=O)c1nnc(NC(=O)C2CC2)cc1Nc1nc2ccc(N3CC(C(C)O)C3)cn2n1 (stereo not drawn) [Example G1, 6-(cyclopropanecarboxamido)-4-((6-(3-(1-hydroxyethyl)azetidin-1-yl)-[1,2,4]triazolo[1,5-a]pyridin-2-yl)amino)-N-methylpyridazine-3-carboxamide] | 9.05 | >1104 | 0.076 | 24 | 1.8 | > 10000
CNC(=O)c1nnc(NC(=O)C2CC2)cc1Nc1nc2ccc(N3CC(O)C3)cn2n1 [Example H1, 6-(cyclopropanecarboxamido)-4-((6-(3-hydroxyazetidin-1-yl)-[1,2,4]triazolo[1,5-a]pyridin-2-yl)amino)-N-methylpyridazine-3-carboxamide] | 34.2 | >292 | 0.057 | 21 | 1.2 | > 10000
CNC(=O)c1nnc(NC(=O)C2CC2)cc1Nc1nc2ccc(N3CC(F)(CO)C3)cn2n1 [Example J1, 6-(cyclopropanecarboxamido)-4-((6-(3-fluoro-3-(hydroxymethyl)azetidin-1-yl)-[1,2,4]triazolo[1,5-a]pyridin-2-yl)amino)-N-methylpyridazine-3-carboxamide] | 15.6 | >641 | 0.086 | 21 | 1.8 | > 10000
CNC(=O)c1nnc(NC(=O)C2CC2)cc1Nc1nc2ccc(N3CCC3CO)cn2n1 (stereo not drawn) [Example J2, 6-(cyclopro-panecar-boxamido)-4-((6-(2-(hydroxy-methyl)azetidin-1-yl)-[1,2,4]triazolo[1,5-a]pyridin-2-yl)amino)-N-methyl-pyridazine-3-carboxamide] | 14.9 | 292 | 0.053 | 25 | 1.3 | 4360
CNC(=O)c1nnc(NC(=O)C2CC2)cc1Nc1nc2ccc(N3C(=O)CC3c3ccccc3)cn2n1 (stereo not drawn) [Example K1, 6-(cyclopropanecarboxamido)-N-methyl-4-((6-(2-oxo-4-phenylazetidin-1-yl)-[1,2,4]triazolo[1,5-a]pyridin-2-yl)amino)pyridazine-3-carboxamide] | 219 | >46 | 0.5 | 8 | 3.8 | > 10000
CNC(=O)c1nnc(NC(=O)C2CC2)cc1Nc1nc2ccc(C3CN(S(C)(=O)=O)C3)cn2n1 [Example L1, 6-(cyclopropanecarboxamido)-N-methyl-4-((6-(1-(methylsulfonyl)azetidin-3-yl)-[1,2,4]triazolo[1,5-a]pyridin-2-yl)amino)pyridazine-3-carboxamide] | 50.9 | >196 | 0.093 | 40 | 3.7 | > 10000
CNC(=O)c1nnc(NC(=O)C2CC2)cc1Nc1nc2ccc(C3CN(C(C)=O)C3)cn2n1 [Example L2, 4-((6-(1-acetylazetidin-3-yl)-[1,2,4]triazolo[1,5-a]pyridin-2-yl)amino)-6-(cyclopropanecarboxamido)-N-methylpyridazine-3-carboxamide] | 276 | >36 | 0.081 | 32 | 2.6 | > 10000

Source: patent US12606556B2, “TYK-2 inhibitor” (BEIGENE, LTD., priority 2020, dated 2026)
